{"source": "patent US11739161B2", "about": "“Methods for treating and diagnosing prostate cancer” (Tufts Medical Center, Inc., priority 2017, dated 2023)", "assay_type_in_all_cases": "cell-based, human", "key": {"DU145 cells": {"system": "DU145 cells", "assay": "RNASE4-induced cell proliferation (MTT assay)", "procedure": "(§1) FIGS. 10A-E. RNASE4 induces prostate cancer cell proliferation and phosphorylation of AKT and S6. (A and B) Exogenous RNASE4 (1 μg/ml) stimulates cell proliferation (A) and cell cycle progression (B) of DU145 cells cultured in the presence of 2% FBS. Cell numbers were determined by MTT assay. Cell cycle status was determined by flow cytometry after 24 hour incubation with RNASE4. (C) Time course of AKT and S6 phosphorylation of serum-starved DU145 cells by RNASE4 (1 μg/ml). Left panels, immunoblots; right panels, quantification of p-AKT and p-S6 normalized to total AKT and S6 by Image J analysis. […] Cells were pre-incubated with the inhibitors at the indicated concentrations for 1 hour prior to be stimulated by 1 μg/ml of RNASE4 for 5 minutes. Top panels, immunoblots; bottom panels, Image J quantification of p-AKT and p-S6 normalized to total AKT and S6. (E) Effect of AKT inhibitor MK-2206, PI3K inhibitors Wortmannin and LY294002, and mTOR inhibitor Rapamycin on RNASE4-induced cell proliferation. DU145 cells were serum-starved overnight, incubated with the inhibitors for 1 hour, and then treated with RNASE4 (1 μg/ml) for three days. Cell numbers were determined by MTT assay. Data shown are from a representative experiments in triplicates of 3 independent repeats. Error bars indicate SEM. **P≤0.01, by unpaired two-tailed Student's t test.\nFIGS. 12A-F. RNASE4 induces AXL phosphorylation. (A) Human phospho-receptor tyrosine kinase (RTK) antibody array analysis. Serum-starved DU145 cells were treated with or without 1 μg/ml of RNASE4 for 5 minutes. […] Cell lysates were analyzed by antibodies against total AXL and phospho-AXL, with β-actin as the loading control. Left panels, immunoblots; right panel, Image J quantification of p-AXL normalized to total AXL. […] Left panels, immunoblots; right panel, quantification. […] Cell numbers were determined by MTT assay. […] Cell lysates were analyzed for AKT and P6 phosphorylation by immunoblotting. Top panels, immunoblots; bottom panels, quantification of phospho-AKT and phospho-S6 by Image J analyses normalized to total AKT and P6, respectively. […]"}, "PC-3 cells": {"system": "PC-3 cells", "assay": "RNASE4-induced cell proliferation (MTT assay)", "procedure": "FIGS. 11A-F. RNASE4 induces PC-3 cell proliferation and phosphorylation of AKT and S6. (A) Exogenous RNASE4 (1 μg/ml) stimulates PC-3 cells proliferation in the presence of 2% FBS. Cell numbers were determined by MTT assay. (B) Time course of AKT and S6 phosphorylation of serum-starved PC-3 cells by RNASE4 (1 μg/ml). Left panels, immunoblots; right panels, quantification of p-AKT and p-S6 normalized to total AKT and S6 by Image J. (C) Effect of AKT inhibitor MK-2206, PI3K inhibitors LY294002 and Wortmannin, and mTOR inhibitor Rapamycin on RNASE4-induced PC-3 cell proliferation. Cells were pre-incubated with the inhibitors at the indicated concentrations for 1 hour prior to be stimulated by RNASE4 (1 μg/ml) for 3 days. Cell numbers were determined by MTT assay. (D) Human phospho-RTK antibody array analysis of starved PC-3 cells treated with or without 1 μg/ml RNASE4 for 5 minutes. (E) Time course of AXL phosphorylation stimulated by RNASE4 in PC-3 cells. Serum-starved PC-3 cells were treated with 1 μg/ml RNASE4 for different time. Cell lysates were analyzed for total AXL and phopho-AXL by immunoblotting. Left panels, immunoblots; right panel, quantification phospho-AXL normalized to total AXL by Image J analysis. (F) Effect of AXL inhibitor R428 on RNASE4-induced PC-3 cell proliferation. Serum-starved PC-3 cells were incubated with 1 or 3 μM R428 for 3 hours and then stimulated by 1 μg/ml of RNASE4 for 3 days. Cell numbers were determined by MTT assay. Data shown are means±SEM of a representative experiments in triplicates of 3 independent repeats. **P≤0.01 and ***P≤0.001, by unpaired two-tailed Student's t test."}, "[1]": {"system": "AKT and S6 phosphorylation in DU145 cells", "assay": "RNASE4-induced phosphorylation of AKT and S6 (immunoblot)", "details": "then 1 μg/ml RNASE4 5 minutes", "procedure": "as §1\n(§2) FIGS. 12A-F. RNASE4 induces AXL phosphorylation. (A) Human phospho-receptor tyrosine kinase (RTK) antibody array analysis. Serum-starved DU145 cells were treated with or without 1 μg/ml of RNASE4 for 5 minutes. A total of 1.5 mg cell lysate protein was blotted on each array membrane. […] (B) Immunoblot analysis of RNASE4-stimulated AXL phosphorylation. DU145 cells were serum-starved overnight and treated with 1 μg/ml of RNASE4 for the indicated time. Cell lysates were analyzed by antibodies against total AXL and phospho-AXL, with β-actin as the loading control. Left panels, immunoblots; right panel, Image J quantification of p-AXL normalized to total AXL. (C) Immunoblot analysis of phospho-AXL in response to stimulation by ANG, RNase A, and RNASE4. DU145 cells were serum-starved overnight and treated with 1 μg/ml of ANG, RNase A, or RNASE4 for 15 minutes. Left panels, immunoblots; right panel, quantification. (D) Effect of AXL inhibitor R428 on RNASE4-induced cell proliferation. Serum-starved DU145 cells were incubated with 1 or 3 μM R428 for 3 hours and then stimulated by 1 μg/ml of RNASE4 for 3 days. Cell numbers were determined by MTT assay. Data shown are means±SEM of a representative experiment (in triplicates) of 3 independent repeats. **P≤0.01 and ***P≤0.001, by unpaired two-tailed Student's t test. (E) Effect of AXL inhibitor R428 on RNASE4-induced AKT and P6 phosphorylation. Serum-starved DU145 cells were incubated with 1 or 3 μM R428 for 3 hours and then stimulated by 1 μg/ml of RNASE4 for 5 minutes. Cell lysates were analyzed for AKT and P6 phosphorylation by immunoblotting. Top panels, immunoblots; bottom panels, quantification of phospho-AKT and phospho-S6 by Image J analyses normalized to total AKT and P6, respectively. (F) Schematic presentation of proposed involvement of AXL in RNASE4-stimulated cellular events."}, "[2]": {"system": "AXL phosphorylation in DU145 cells", "assay": "AXL phosphorylation (phospho-RTK array, immunoblot)", "details": "serum-starved DU145, 1 μg/ml protein", "procedure": "as §2\nHuman Phospho-RTK Arrays were purchased from R&D Systems. […] Protein concentrations were quantified by Bradford Assay and 1.5 mg cell lysate was used per array. Pixel densities on were analyzed by ImageJ. […]"}, "[3]": {"details": "serum-starved DU145, 1 or 3 μM R428 3 hours"}}, "data": [{"molecule": "NC1(c2ccc(-c3nc4ccn5c(=O)[nH]nc5c4cc3-c3ccccc3)cc2)CCC1", "note": "[MK-2206]", "values": [{"measurement": "RNASE4-induced cell proliferation", "setting": "DU145 cells; serum-starved DU145, inhibitor 1 hour, then RNASE4 1 μg/ml three days", "value": "abolished"}, {"measurement": "RNASE4-induced cell proliferation", "setting": "PC-3 cells; PC-3, inhibitor 1 hour, then RNASE4 1 μg/ml 3 days", "value": "abolished"}, {"measurement": "RNASE4-induced AKT phosphorylation", "setting": "[1]; DU145, inhibitor 1 hour", "value": "inhibited"}, {"measurement": "RNASE4-induced S6 phosphorylation", "setting": "[1]; DU145, inhibitor 1 hour", "value": "inhibited"}]}, {"molecule": "Nc1nc(Nc2ccc3c(c2)CCC(N2CCCC2)CC3)nn1-c1cc2c(nn1)-c1ccccc1CCC2", "note": "(stereo not shown) [R428]", "values": [{"measurement": "RNASE4-induced cell proliferation", "setting": "DU145 cells; serum-starved DU145, 1 or 3 μM R428 3 hours, then 1 μg/ml RNASE4 3 days", "value": "inhibted"}, {"measurement": "RNASE4-induced cell proliferation", "setting": "PC-3 cells; serum-starved PC-3, 1 or 3 μM R428 3 hours, then 1 μg/ml RNASE4 3 days", "value": "inhibted"}, {"measurement": "RNASE4-induced AKT phosphorylation", "setting": "[1]; [3]", "value": "inhibted"}, {"measurement": "RNASE4-induced S6 phosphorylation", "setting": "[1]; [3]", "value": "inhibted"}]}, {"molecule": "ANG: Angiogenin, another member of the pancreatic ribonuclease superfamily [reference compound]", "values": [{"measurement": "phosphorylation of AXL", "setting": "[2]", "value": "do not induce"}]}, {"molecule": "RNase A: member of the pancreatic ribonuclease superfamily (protein, UniProt P61823 27-150, looked up) Ribonuclease pancreatic: KETAAAKFERQHMDSSTSAASSSNYCNQMMKSRNLTKDRCKPVNTFVHESLADVQAVCSQKNVACKNGQTNCYQSYSTMSITDCRETGSSKYPNCAYKTTQANKHIIVACEGNPYVPVHFDASV", "values": [{"measurement": "phosphorylation of AXL", "setting": "[2]", "value": "do not induce"}]}]}
